The text below walks through data of US20210379153A1, “COMBINATION THERAPIES COMPRISING SIRP ALPHA-BASED CHIMERIC PROTEINS” (Shattuck Labs, Inc., priority 2018, published 2021).

Values joined by “and” are separate entries in the source; they are usually repeats but may differ in a detail not shown here. Equal entries are not always repeated.

Data set [1] deals with tumors. Put plainly: In vivo tumor model, SIRPα-Fc-LIGHT with anti-PD-1 (Example 15). Conditions: combination with anti-PD-1 antibody. Also noted: species or system mice. As to the method: The in vivo ability of combinations of the SIRPα-Fc-LIGHT chimeric protein with anti-PD-1 antibodies to target and treat tumors was determined. (FIG. 26A and FIG. 26B) FIG. 26C and FIG. 26D include data relevant to the graphs of FIG. 26A and FIG. 26B.

Data set [2] deals with tumors. Briefly: In vivo tumor model, SIRPα-Fc-OX40L with checkpoint antibodies (Example 14). Also noted: species or system mice. Conditions: chimeric protein alone. As to the method: The in vivo ability of combinations of the SIRPα-Fc-OX40L chimeric protein with anti-CTLA-4 antibodies or the SIRPα-Fc-OX40L chimeric protein with anti-PD-1 antibodies to target and treat tumors was determined.

For data set [3], the system named is IRF-inducible ISG reporter in RAW264.7 cells. Briefly: RAW264.7-ISG interferon reporter cells co-cultured with A20 lymphoma cells. Format: cell-based, mouse. The settings on record: monotherapy; 50 mg/mL proteins, 1 mg/mL anti-mCD20; 24 hours. As to the method: FIG. 8D: Macrophage:Toledo lymphoma co-cultures were harvested 2 hours into phagocytosis assays in the presence of rituximab ([…]), SIRPα-Fc-CD40L ([…]), or the combination of both agents. Macrophages were isolated by CD11b+ FACS, RNA was prepared, cDNA synthesized, and gene expression (IFNa1, IFNb1, CD80, and CD86) assessed by qRT-PCR. Fold change was calculated using DDCT and values obtained from the housekeeping gene ACTB, and the corresponding values from untreated samples. […] After 2 hours, co-cultures were isolated from tissue culture vessels and were stained with a fluorescently conjugated CD11b antibody to discriminate macrophages. Cells were then assessed by flow cytometry for the co-localization of fluorescent signal from both cells types. […] After 24-hours type I interferon induced luminescence was assessed using a luminometer. The maximum luminescence (RLU) from each experiment was set to 1, and all other samples were normalized accordingly. […]
Additionally, a macrophage reporter system was used to detect activation. […] After 24 hours, culture supernatant was collected and assessed for luciferase activity, which would indicate activation of a type I interferon response in the RAW-ISG reporter cells. […]

Data set [4] has as its system CD8+ T cell-depleted PBMC. Briefly: IL-2 ELISpot of CD8+ T cell-depleted PBMC. Format: cell-based, human. The settings on record: day 8 of the culture. As to the method:
(§1) Here, proliferation was assessed via [^3H]-Thymidine incorporation on days 5, 6, and 7. The order of samples (in triplicate) along the X-axis is media only, KLH, Exenatide, 0.3 nm SIRPα-Fc-CD40L, 3 nm SIRPα-Fc-CD40L, 30 nm SIRPα-Fc-CD40L and 300 nm SIRPα-Fc-CD40L. […] Here, proliferation was assessed by ELISpot. The order of samples (in triplicate) along the X-axis is media only, KLH, Exenatide, 0.3 nm SIRPα-Fc-CD40L, 3 nm SIRPα-Fc-CD40L, 30 nm SIRPα-Fc-CD40L and 300 nm SIRPα-Fc-CD40L.
(§2) The observation that SIRPα-Fc-CD40L stimulated CD40 signaling prompted investigation of other cellular functions that depend upon CD40 signaling. CD8+ T cell-depleted PBMC were isolated from a total of 33-50 different human donors and cultured in the presence of a dose-titration of hSIRPα-Fc-CD40L (FIG. 6A and FIG. 6B).

In the next data set the target is FcγR-Ia (Homo sapiens, UniProt P12314). Briefly: SPR binding to Fc receptor FcγR-Ia. The text has this: Scale is shown and yellow arrows correspond with each identified monomer. A schematic of the hexamer species is shown to the right, depicting dimerization of the Fc domain and trimerization of the CD40L domain. […] Recombinant hSIRPα-Fc, hCD40L-Fc, and hIgG1 were used as positive controls. […] In both panels, the CHOK1 Parental is on the left and the CHOK1/hCD47 is on the right. […] For both graphs, the CHOK1 Parental is on the bottom. […] In this figure, the control is the top curve, the SIRPα-Fc-CD40L is the middle curve, and the anti-CD47 is the bottom curve.
The extracellular domain (ECD) of SIRPα and the ECD of CD40L were fused via an antibody Fc domain to generate SIRPαECD-Fc-CD40LECD chimeric proteins. When human proteins were used, the chimeric protein is referred to as hSIRPα-Fc-CD40L; when murine proteins were used, the chimeric protein is referred to as and mSIRPα-Fc-CD40L. […] The purified protein was then analyzed for the presence of each individual domain by Western blotting using anti-SIRPα, anti-Fc, and anti-CD40L antibodies (FIG. 3A, bottom). […] Next, binding affinities for SIRPα-Fc-CD40L to recombinant CD47, CD40, or Fc receptors were evaluated by surface plasmon resonance (SPR). […] A functional ELISA evaluated whether SIRPα-Fc-CD40L could outcompete a commercially available single-sided SIRPα-Fc control for binding to recombinant CD47 (FIG. 3H).

Data set [5] in a line: Repeat-dose safety and activity study in cynomolgus macaques. The settings on record: IV infusion weekly for five weeks; 0.1, 1, 10 and 40 mg/kg. Type of data set: in vivo. The procedure:
FIG. 21 is a graph showing cynomolgus macaques that were treated with vehicle, or 0.1, 1, 10, and 40 mg/kg of SIRPα-Fc-CD40L. Blood chemistry analysis assessed peripheral erythrocyte counts, hemoglobin levels, and hematocrit. In addition, the fold-change in lymphocyte count from pre-dose to 24 hours post-dose is shown.
The experiments of this example tested the safety and activity of the human SIRPα-Fc-CD40L chimeric protein following repeat doses in cynomolgus macaques. Briefly, naïve cynomolgus macaques were administered the human SIRPα-Fc-CD40L chimeric protein by intravenous infusion every week, for five consecutive weeks, at doses of 0.1, 1, 10 and 40 mg/kg. Standard hematology and clinical chemistry parameters were collected before and after each dose.
Receptor occupancy was evaluated on circulating CD40+ lymphocytes.

The subject of data set [6] is CD8+ T cell-depleted PBMC. Briefly: Proliferation of CD8+ T cell-depleted PBMC ([3H]-thymidine). Format: cell-based, human. The settings on record: 0.3, 3, 30, or 300 nM; 7-day culture; 33-50 donors. The procedure:
as §1, §2

Another data set deals with FcγR-IIIb (Homo sapiens, UniProt O75015). Put plainly: SPR binding to Fc receptor FcγR-IIIb. The text has this: (§3) The extracellular domain (ECD) of SIRPα and the ECD of CD40L were fused via an antibody Fc domain to generate SIRPαECD-Fc-CD40LECD chimeric proteins. When human proteins were used, the chimeric protein is referred to as hSIRPα-Fc-CD40L; when murine proteins were used, the chimeric protein is referred to as and mSIRPα-Fc-CD40L. Generically, the chimeric protein is referred to as SIRPα-Fc-CD40L. […] Mammalian cells were then transfected with the hSIRPα-Fc-CD40L expressing construct, and the secreted protein was purified from conditioned media by affinity chromatography. The purified protein was then analyzed for the presence of each individual domain by Western blotting using anti-SIRPα, anti-Fc, and anti-CD40L antibodies (FIG. 3A, bottom). […] The reduced and deglycosylated form of the protein migrated at the predicted monomeric molecular weight of 90.1 kDa. […] Next, binding affinities for SIRPα-Fc-CD40L to recombinant CD47, CD40, or Fc receptors were evaluated by surface plasmon resonance (SPR). […] Finally, to confirm that SIRPα-Fc-CD40L interacted with native CD47 and CD40 in a similar manner to recombinant CD47 and CD40, CHOK1-hCD47 and CHOK1-hCD40 reporter cell lines were developed (FIG. 3F). […] A functional ELISA evaluated whether SIRPα-Fc-CD40L could outcompete a commercially available single-sided SIRPα-Fc control for binding to recombinant CD47 (FIG. 3H).

A further data set addresses T1, FcγR-IIb (Homo sapiens, UniProt P31994).
T1 sequence (P31994 43-310): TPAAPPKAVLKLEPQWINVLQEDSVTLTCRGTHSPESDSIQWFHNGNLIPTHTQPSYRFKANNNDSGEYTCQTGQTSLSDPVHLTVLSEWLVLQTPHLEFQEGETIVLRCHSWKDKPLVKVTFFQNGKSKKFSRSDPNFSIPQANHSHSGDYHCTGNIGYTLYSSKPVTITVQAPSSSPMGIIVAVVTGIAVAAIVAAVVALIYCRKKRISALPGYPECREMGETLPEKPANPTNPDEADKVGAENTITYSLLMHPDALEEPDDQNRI
Put plainly: SPR binding to Fc receptor FcγR-IIb.
Description: as §3

In data set [7] the target is T2, recombinant mouse CD47 (mouse) (UniProt Q61735).
T2 sequence (looked up): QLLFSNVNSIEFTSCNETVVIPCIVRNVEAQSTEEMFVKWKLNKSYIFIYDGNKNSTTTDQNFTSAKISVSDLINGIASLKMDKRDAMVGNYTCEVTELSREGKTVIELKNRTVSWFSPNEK
Put plainly: dual ELISA: coat mCD47-Fc, detect mCD40-His, tertiary anti-his-HRP, OD450.

Data set [8] relates to IFNα1, IFNβ1, CD80 and CD86 expression in macrophages. Put plainly: qRT-PCR of macrophages sorted from macrophage:Toledo lymphoma co-cultures. Type of data set: cell-based, human. The arrangement: macrophage activation and type I interferon gene expression: dose or concentration left out as unconfirmed. The settings on record: monotherapy; 2 hours. The procedure: FIG. 8D: Macrophage:Toledo lymphoma co-cultures were harvested 2 hours into phagocytosis assays in the presence of rituximab ([…]), SIRPα-Fc-CD40L ([…]), or the combination of both agents. Macrophages were isolated by CD11b+ FACS, RNA was prepared, cDNA synthesized, and gene expression (IFNa1, IFNb1, CD80, and CD86) assessed by qRT-PCR. Fold change was calculated using DDCT and values obtained from the housekeeping gene ACTB, and the corresponding values from untreated samples. […] After 2 hours, co-cultures were isolated from tissue culture vessels and were stained with a fluorescently conjugated CD11b antibody to discriminate macrophages. Cells were then assessed by flow cytometry for the co-localization of fluorescent signal from both cells types. Identical assays were set up where macrophages were pre-incubated for 1 hour with 20 μg/mL of a commercially available Fc block cocktail or with 20 μg/mL of a CD40 blocking antibody or with 5 μg/mL of a calreticulin blocking peptide. FIG. 8G: RAW 264.7-Lucia ISG cells were cultured with A20 lymphoma cells in the presence of […] of mSIRPα-Fc-CD40L, recombinant Fc-mCD40L, mSIRPα-Fc, or their combination, 1 mg/mL anti-mCD20, or the combination of mSIRPα-Fc-CD40L and anti-mCD20. After 24-hours type I interferon induced luminescence was assessed using a luminometer. The maximum luminescence (RLU) from each experiment was set to 1, and all other samples were normalized accordingly. Values from repeat experiments are shown.
RNA was prepared from macrophages isolated using fluorescent activated cell sorting (FACS) from SIRPα-Fc-CD40L/Rituximab treated co-cultures macrophages and Toledo lymphoma cells. The RNA was assessed by qRT-PCR for expression of IFNα1 and IFNβ1, and the macrophage activation markers CD80 and CD86.

FcγR-IIIb, sequence (O75015 17-200): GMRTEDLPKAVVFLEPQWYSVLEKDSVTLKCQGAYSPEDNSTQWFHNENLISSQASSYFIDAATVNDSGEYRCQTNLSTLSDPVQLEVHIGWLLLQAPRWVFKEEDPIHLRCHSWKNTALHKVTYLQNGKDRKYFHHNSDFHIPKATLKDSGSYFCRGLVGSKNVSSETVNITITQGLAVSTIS
FcγR-Ia, sequence (P12314 16-374): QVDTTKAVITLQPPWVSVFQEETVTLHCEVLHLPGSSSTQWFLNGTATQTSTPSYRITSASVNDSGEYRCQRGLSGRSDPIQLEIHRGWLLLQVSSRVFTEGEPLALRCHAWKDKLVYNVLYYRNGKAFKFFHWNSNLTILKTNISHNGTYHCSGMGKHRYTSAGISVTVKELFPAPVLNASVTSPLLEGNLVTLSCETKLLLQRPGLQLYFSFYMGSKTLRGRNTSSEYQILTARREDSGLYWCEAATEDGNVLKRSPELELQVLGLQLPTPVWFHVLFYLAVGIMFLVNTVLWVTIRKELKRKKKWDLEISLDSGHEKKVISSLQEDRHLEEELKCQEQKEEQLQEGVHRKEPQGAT

As to “SIRPα(CD172a)-Fc-LIGHT: ECD of SIRPα, hinge-CH2-CH3 Fc linker and ECD of LIGHT (SEQ ID NO: 63)”, in the data set on tumors [1], the survival result was “any survivors by the twenty-fifth day” and the tumor size entry was “most effective in reducing tumor size”. The “rejection of secondary tumor challenge” value in the data set with tumors [1] (no additional treatment) amounted to 66.6%.

For the substance “SIRPα(CD172a)-Fc-OX40L: ECD of SIRPα and ECD of OX40L fused via an antibody Fc domain (SEQ ID NO: 61)”, in the data set on tumors [2], the survival result is “any survivors by the sixteenth day” and the tumor size entry is listed as “effective in reducing tumor size”.

“SIRPα-Fc: recombinant single-sided SIRPα-Fc protein [reference compound]”: the “interferon gene-driven luciferase activity (type I IFN response)” value in [3] is recorded as “no significant signal”.

As for “hSIRPα-Fc-CD40L: chimeric protein: ECD of human SIRPα fused via an antibody Fc domain to ECD of human CD40L (SEQ ID NO: 60)”, the “number of IL-2-secreting PBMC” value in [4] is recorded as “dose-dependent increase”. Further, the binding result in the data set with FcγR-Ia, in the data set with FcγR-IIIb and in the data set with FcγR-IIb was “undetectable binding” throughout. Further, the hemolysis result in data set [5] is “no evidence”. Further, in [5], the thrombocytopenia entry is “no evidence”. For the same substance, the “proliferation of human PBMC” value in data set [6] is listed as “dose-dependent proliferation”.

In the case of “mSIRPα-Fc-CD40L chimeric protein (murine SIRPα ECD - Fc - murine CD40L ECD) (from UniProt P97797 32-373; P27548 47-260) (Fc fusion)”, the EC50 in data set [7] was 7.37 nM and 8.73 nM.

As to “rituximab: anti-CD20 antibody [reference compound]”, in data set [8], the “macrophage activation and type I interferon gene expression” value is “induced macrophage activation and the expression of type I interferon genes”.
